Test results taken from ChEMBL document CHEMBL4507293 (2021).

Columns and labels:
[1] = molecular target: Serine/threonine-protein kinase MAK (Homo sapiens) (UniProt P20794); conditions: Compound concentration 100.0 nM
[2] = molecular target: Ephrin type-A receptor 1 (Homo sapiens) (UniProt P21709); conditions: Compound concentration 100.0 nM
[3] = molecular target: SRSF protein kinase 2 (Homo sapiens) (UniProt P78362); conditions: Compound concentration 100.0 nM
[4] = molecular target: Serine/threonine-protein kinase PAK 3 (Homo sapiens) (UniProt O75914); conditions: Compound concentration 100.0 nM
[5] = molecular target: Mitogen-activated protein kinase kinase kinase 9 (Homo sapiens) (UniProt P80192); conditions: Compound concentration 100.0 nM
[6] = molecular target: Mitogen-activated protein kinase 14 (Homo sapiens) (UniProt Q16539); conditions: Compound concentration 100.0 nM
[7] = molecular target: Phosphatidylinositol 5-phosphate 4-kinase type-2 beta (Homo sapiens) (UniProt P78356); conditions: Compound concentration 100.0 nM
[8] = molecular target: NUAK family SNF1-like kinase 2 (Homo sapiens) (UniProt Q9H093); conditions: Compound concentration 100.0 nM
[9] = molecular target: Serine/threonine-protein kinase 24 (Homo sapiens) (UniProt Q9Y6E0); conditions: Compound concentration 100.0 nM
[10] = test system: Tyrosine-protein kinase ABL1 (Homo sapiens), P00519 [F317I]; conditions: Compound concentration 100.0 nM
[11] = molecular target: Calcium/calmodulin-dependent protein kinase type II subunit beta (Homo sapiens) (UniProt Q13554); conditions: Compound concentration 100.0 nM
[12] = molecular target: Rhodopsin kinase GRK1 (Homo sapiens) (UniProt Q15835); conditions: Compound concentration 100.0 nM
[13] = test system: Tyrosine-protein kinase ABL1 (Homo sapiens), P00519 [H396P]; conditions: Compound concentration 100.0 nM
[14] = molecular target: Serine/threonine-protein kinase DCLK2 (Homo sapiens) (UniProt Q8N568); conditions: Compound concentration 100.0 nM
[15] = molecular target: Protein-tyrosine kinase 6 (Homo sapiens) (UniProt Q13882); conditions: Compound concentration 100.0 nM
Protein-tyrosine kinase 6 (Homo sapiens), sequence (Q13882 whole entry, looked up): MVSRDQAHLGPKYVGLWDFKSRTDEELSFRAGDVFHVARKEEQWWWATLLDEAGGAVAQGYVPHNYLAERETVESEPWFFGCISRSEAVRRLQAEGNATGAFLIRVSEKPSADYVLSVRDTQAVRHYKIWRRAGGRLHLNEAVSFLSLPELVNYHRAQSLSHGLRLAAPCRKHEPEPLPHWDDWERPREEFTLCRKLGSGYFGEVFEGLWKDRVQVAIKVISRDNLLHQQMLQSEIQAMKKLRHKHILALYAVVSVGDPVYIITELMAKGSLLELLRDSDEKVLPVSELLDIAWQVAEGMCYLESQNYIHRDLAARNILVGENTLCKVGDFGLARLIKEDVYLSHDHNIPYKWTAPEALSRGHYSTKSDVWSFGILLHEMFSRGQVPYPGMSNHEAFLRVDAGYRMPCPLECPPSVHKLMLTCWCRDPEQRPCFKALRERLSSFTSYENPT

[16] = molecular target: SRSF protein kinase 1 (Homo sapiens) (UniProt Q96SB4); conditions: Compound concentration 100.0 nM
[17] = molecular target: Ribosomal protein S6 kinase alpha-3 (Homo sapiens) (UniProt P51812); conditions: Compound concentration 100.0 nM
[18] = molecular target: Receptor tyrosine-protein kinase erbB-4 (Homo sapiens) (UniProt Q15303); conditions: Compound concentration 100.0 nM
[19] = molecular target: Fibroblast growth factor receptor 3 (Homo sapiens) (UniProt P22607); conditions: Compound concentration 100.0 nM
[20] = molecular target: Protein kinase C theta type (Homo sapiens) (UniProt Q04759); conditions: Compound concentration 100.0 nM
[21] = molecular target: Serine/threonine-protein kinase PAK 1 (Homo sapiens) (UniProt Q13153); conditions: Compound concentration 100.0 nM
Serine/threonine-protein kinase PAK 1 (Homo sapiens), sequence (Q13153 whole entry, canonical isoform): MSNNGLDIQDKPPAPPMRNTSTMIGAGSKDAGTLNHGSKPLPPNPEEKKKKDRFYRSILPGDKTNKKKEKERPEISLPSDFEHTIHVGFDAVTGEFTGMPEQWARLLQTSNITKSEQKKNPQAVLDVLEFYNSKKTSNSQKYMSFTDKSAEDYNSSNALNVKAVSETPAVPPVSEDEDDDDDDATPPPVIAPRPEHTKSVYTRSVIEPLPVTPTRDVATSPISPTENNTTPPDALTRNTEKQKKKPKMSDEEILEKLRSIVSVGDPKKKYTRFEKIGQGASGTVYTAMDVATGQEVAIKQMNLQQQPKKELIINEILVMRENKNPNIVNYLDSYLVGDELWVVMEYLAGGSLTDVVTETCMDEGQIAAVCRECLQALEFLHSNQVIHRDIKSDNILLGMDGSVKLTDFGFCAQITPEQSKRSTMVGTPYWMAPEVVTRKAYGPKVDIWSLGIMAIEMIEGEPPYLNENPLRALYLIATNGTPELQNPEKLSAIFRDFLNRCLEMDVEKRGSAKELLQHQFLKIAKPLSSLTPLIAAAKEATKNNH

[22] = molecular target: Phosphatidylinositol 4,5-bisphosphate 3-kinase catalytic subunit alpha isoform (Homo sapiens) (UniProt P42336); conditions: Compound concentration 100.0 nM
[23] = molecular target: Receptor-type tyrosine-protein kinase FLT3 (Homo sapiens) (UniProt P36888); conditions: Compound concentration 100.0 nM
[24] = molecular target: Tyrosine-protein kinase Mer (Homo sapiens) (UniProt Q12866); conditions: Compound concentration 100.0 nM
Tyrosine-protein kinase Mer (Homo sapiens), sequence (Q12866 whole entry, the tested form may be a part): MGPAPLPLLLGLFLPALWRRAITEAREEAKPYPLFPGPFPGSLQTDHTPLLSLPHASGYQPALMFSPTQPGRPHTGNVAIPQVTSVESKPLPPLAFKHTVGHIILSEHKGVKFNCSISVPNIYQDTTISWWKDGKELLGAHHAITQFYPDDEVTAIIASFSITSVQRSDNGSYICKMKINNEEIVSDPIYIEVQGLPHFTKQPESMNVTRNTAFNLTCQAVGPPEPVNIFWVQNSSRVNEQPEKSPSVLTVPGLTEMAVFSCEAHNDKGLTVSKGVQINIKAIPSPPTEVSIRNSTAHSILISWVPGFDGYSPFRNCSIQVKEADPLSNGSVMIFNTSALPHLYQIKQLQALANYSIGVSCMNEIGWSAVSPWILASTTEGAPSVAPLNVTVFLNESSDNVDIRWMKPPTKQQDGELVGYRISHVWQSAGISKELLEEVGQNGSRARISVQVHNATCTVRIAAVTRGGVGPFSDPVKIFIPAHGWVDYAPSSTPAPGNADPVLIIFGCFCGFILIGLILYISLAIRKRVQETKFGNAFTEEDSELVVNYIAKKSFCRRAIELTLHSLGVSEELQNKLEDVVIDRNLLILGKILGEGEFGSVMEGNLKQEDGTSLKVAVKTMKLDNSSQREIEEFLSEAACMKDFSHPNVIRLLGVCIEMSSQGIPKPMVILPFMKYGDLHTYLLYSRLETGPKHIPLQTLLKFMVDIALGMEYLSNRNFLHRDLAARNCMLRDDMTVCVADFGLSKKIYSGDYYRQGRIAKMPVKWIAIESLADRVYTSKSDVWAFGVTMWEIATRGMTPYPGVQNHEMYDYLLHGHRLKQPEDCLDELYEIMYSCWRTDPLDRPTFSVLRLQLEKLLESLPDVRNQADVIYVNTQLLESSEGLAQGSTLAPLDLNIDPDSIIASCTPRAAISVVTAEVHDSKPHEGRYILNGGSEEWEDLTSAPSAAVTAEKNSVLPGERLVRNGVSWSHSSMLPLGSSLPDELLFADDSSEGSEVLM

[25] = molecular target: Discoidin domain-containing receptor 2 (Homo sapiens) (UniProt Q16832); conditions: Compound concentration 100.0 nM
[26] = test system: Epidermal growth factor receptor (Homo sapiens), P00533 [UNDEFINED MUTATION]; conditions: Compound concentration 100.0 nM
[27] = molecular target: Tyrosine-protein kinase Fer (Homo sapiens) (UniProt P16591); conditions: Compound concentration 100.0 nM
[28] = molecular target: Tyrosine-protein kinase receptor Tie-1 (Homo sapiens) (UniProt P35590); conditions: Compound concentration 100.0 nM
[29] = test system: Receptor-type tyrosine-protein kinase FLT3 (Homo sapiens), P36888 [R834Q]; conditions: Compound concentration 100.0 nM
[30] = molecular target: High affinity nerve growth factor receptor (Homo sapiens) (UniProt P04629); conditions: Compound concentration 100.0 nM
[31] = molecular target: Myosin-IIIb (Homo sapiens) (UniProt Q8WXR4); conditions: Compound concentration 100.0 nM
[32] = test system: Proto-oncogene tyrosine-protein kinase receptor Ret (Homo sapiens), P07949 [V804L]; conditions: Compound concentration 100.0 nM
[33] = molecular target: Phosphatidylinositol 3-kinase C2 domain-containing subunit gamma (Homo sapiens) (UniProt O75747); conditions: Compound concentration 100.0 nM
[34] = molecular target: STE20/SPS1-related proline-alanine-rich protein kinase (Homo sapiens) (UniProt Q9UEW8); conditions: Compound concentration 100.0 nM
[35] = test system: Epidermal growth factor receptor (Homo sapiens), P00533 [G719C]; conditions: Compound concentration 100.0 nM
[36] = test system: Phosphatidylinositol 4,5-bisphosphate 3-kinase catalytic subunit alpha isoform (Homo sapiens), P42336 [M1043I]; conditions: Compound concentration 100.0 nM
Phosphatidylinositol 4,5-bisphosphate 3-kinase catalytic subunit alpha isoform (Homo sapiens), P42336 [M1043I], sequence (P42336 whole entry M1043I, canonical isoform): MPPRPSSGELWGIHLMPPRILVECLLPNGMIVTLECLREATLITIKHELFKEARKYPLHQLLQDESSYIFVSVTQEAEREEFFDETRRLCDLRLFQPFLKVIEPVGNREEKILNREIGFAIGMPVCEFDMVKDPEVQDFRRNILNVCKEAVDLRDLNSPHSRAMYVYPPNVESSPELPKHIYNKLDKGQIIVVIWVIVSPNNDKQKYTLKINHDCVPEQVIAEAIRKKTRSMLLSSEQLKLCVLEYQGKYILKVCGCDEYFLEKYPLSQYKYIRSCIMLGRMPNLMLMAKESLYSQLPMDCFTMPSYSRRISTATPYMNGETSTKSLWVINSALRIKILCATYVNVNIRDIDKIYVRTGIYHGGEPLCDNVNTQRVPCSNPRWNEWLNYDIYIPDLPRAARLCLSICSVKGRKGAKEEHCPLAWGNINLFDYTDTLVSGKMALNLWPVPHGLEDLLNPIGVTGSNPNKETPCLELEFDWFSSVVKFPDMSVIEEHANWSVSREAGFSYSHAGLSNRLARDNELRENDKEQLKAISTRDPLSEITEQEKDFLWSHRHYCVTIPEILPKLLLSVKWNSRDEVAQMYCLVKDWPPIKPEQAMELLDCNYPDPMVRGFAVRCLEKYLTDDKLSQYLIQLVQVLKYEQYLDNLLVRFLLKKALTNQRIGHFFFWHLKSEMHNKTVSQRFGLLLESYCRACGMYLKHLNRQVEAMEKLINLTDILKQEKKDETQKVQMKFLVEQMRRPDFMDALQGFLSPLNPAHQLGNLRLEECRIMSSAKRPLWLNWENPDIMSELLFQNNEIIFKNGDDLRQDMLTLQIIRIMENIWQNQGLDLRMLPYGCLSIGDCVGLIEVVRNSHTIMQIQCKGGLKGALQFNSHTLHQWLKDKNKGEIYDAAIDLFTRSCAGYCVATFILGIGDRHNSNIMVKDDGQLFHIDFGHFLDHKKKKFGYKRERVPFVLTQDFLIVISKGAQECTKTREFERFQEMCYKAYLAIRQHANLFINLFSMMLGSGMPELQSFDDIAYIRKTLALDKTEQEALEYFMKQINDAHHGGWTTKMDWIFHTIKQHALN

[37] = molecular target: Casein kinase I isoform alpha-like (Homo sapiens) (UniProt Q8N752); conditions: Compound concentration 100.0 nM
[38] = test system: Mast/stem cell growth factor receptor Kit (Homo sapiens), P10721 [V559D,T670I]; conditions: Compound concentration 100.0 nM
[39] = molecular target: Protein kinase C iota type (Homo sapiens) (UniProt P41743); conditions: Compound concentration 100.0 nM
Protein kinase C iota type (Homo sapiens), sequence (P41743 whole entry): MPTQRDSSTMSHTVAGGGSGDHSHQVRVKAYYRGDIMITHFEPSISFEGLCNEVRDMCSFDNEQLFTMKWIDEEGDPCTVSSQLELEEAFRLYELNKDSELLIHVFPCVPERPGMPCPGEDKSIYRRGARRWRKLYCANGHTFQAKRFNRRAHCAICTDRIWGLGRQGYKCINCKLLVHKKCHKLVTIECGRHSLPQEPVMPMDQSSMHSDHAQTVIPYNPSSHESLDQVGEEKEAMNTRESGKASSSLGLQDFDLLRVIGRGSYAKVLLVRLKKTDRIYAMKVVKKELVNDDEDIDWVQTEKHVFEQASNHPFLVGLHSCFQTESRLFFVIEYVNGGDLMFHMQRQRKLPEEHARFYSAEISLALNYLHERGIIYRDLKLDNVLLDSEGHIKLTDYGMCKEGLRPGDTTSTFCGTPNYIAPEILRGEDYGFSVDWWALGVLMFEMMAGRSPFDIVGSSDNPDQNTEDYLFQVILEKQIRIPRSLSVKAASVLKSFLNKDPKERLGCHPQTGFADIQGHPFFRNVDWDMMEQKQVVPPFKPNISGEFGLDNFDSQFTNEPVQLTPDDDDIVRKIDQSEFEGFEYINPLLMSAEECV

[40] = molecular target: Beta-2 adrenergic receptor (Homo sapiens) (UniProt P07550); conditions: Compound concentration 10.0 uM
[41] = molecular target: ALK tyrosine kinase receptor (Homo sapiens) (UniProt Q9UM73); conditions: Compound concentration 100.0 nM
[42] = molecular target: Insulin-like growth factor 1 receptor (Homo sapiens) (UniProt P08069); conditions: Compound concentration 100.0 nM
Insulin-like growth factor 1 receptor (Homo sapiens), sequence (P08069 31-736 limits assumed): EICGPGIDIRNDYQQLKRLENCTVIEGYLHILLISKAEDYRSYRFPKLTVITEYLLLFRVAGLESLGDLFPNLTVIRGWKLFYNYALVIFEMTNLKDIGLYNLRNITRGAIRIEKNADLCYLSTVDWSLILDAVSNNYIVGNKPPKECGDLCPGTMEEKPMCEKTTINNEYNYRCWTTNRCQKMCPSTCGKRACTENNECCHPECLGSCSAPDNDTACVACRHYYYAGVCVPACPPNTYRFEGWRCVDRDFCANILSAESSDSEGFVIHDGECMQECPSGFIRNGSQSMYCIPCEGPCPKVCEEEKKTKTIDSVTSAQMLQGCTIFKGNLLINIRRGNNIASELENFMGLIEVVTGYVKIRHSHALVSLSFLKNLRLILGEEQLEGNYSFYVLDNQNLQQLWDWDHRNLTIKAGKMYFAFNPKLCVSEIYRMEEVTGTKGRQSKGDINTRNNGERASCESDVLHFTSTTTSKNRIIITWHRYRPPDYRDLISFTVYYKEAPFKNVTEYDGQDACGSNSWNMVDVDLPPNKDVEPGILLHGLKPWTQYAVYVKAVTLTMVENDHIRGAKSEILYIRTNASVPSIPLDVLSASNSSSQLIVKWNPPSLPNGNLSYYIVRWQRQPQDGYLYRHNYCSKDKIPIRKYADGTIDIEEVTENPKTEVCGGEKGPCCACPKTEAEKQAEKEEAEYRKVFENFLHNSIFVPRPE
Insulin-like growth factor 1 receptor (Homo sapiens), sequence (P08069 741-1367 limits assumed): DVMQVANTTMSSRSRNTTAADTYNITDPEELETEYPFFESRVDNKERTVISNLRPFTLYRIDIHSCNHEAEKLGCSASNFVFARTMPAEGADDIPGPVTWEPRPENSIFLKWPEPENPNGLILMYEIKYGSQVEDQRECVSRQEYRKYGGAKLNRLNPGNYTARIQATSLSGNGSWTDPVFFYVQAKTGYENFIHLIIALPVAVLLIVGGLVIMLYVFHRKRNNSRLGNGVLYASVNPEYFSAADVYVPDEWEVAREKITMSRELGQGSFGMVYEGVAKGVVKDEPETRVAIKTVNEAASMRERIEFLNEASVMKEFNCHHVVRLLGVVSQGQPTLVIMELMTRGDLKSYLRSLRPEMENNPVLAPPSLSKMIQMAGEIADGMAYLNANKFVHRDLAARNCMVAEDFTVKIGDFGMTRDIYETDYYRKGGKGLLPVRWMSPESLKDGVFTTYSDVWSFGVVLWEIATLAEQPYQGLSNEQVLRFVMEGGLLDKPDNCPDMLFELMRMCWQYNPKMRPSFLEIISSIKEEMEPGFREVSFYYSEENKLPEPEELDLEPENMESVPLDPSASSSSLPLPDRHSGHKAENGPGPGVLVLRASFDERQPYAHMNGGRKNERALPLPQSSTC

[43] = molecular target: Sigma intracellular receptor 2 (Homo sapiens, UniProt Q5BJF2); conditions: Compound concentration 10.0 uM
[44] = molecular target: Phosphatidylinositol 4,5-bisphosphate 3-kinase catalytic subunit gamma isoform (Homo sapiens) (UniProt P48736); conditions: Compound concentration 100.0 nM
[45] = molecular target: Myosin light chain kinase family member 4 (Homo sapiens) (UniProt Q86YV6); conditions: Compound concentration 100.0 nM

SMILES: COCCOc1nc(-c2ccc(Cl)nc2)nc2c1CN(C(=O)c1ncn3ccccc13)CC2 [THPP-1]
- residual activity [1]: 100%
- residual activity [2]: 100%
- residual activity [3]: 100%
- residual activity [4]: 100%
- residual activity [5]: 100%
- residual activity [6]: 100%
- residual activity [7]: 59%
- residual activity [8]: 100%
- residual activity [9]: 100%
- residual activity [10]: 100%
- residual activity [11]: 100%
- residual activity [12]: 100%
- residual activity [13]: 100%
- residual activity [14]: 100%
- residual activity [15]: 100%
- residual activity [16]: 86%
- residual activity [17]: 100%
- residual activity [18]: 80%
- residual activity [19]: 100%
- residual activity [20]: 100%
- residual activity [21]: 100%
- residual activity [22]: 85%
- residual activity [23]: 100%
- residual activity [24]: 89%
- residual activity [25]: 100%
- residual activity [26]: 80%
- residual activity [27]: 100%
- residual activity [28]: 100%
- residual activity [29]: 65%
- residual activity [30]: 100%
- residual activity [31]: 67%
- residual activity [32]: 100%
- residual activity [33]: 100%
- residual activity [34]: 100%
- residual activity [35]: 85%
- residual activity [36]: 88%
- residual activity [37]: 100%
- residual activity [38]: 100%
- residual activity [39]: 100%
- inhibition [40]: -0.65%
- residual activity [41]: 91%
- residual activity [42]: 82%
- inhibition [43]: 55.6%
- residual activity [44]: 100%
- residual activity [45]: 100%

SMILES: CC(C)CC(=O)N1CCc2nc(-c3ccc(Br)cc3)nc(N(C)Cc3ccccc3)c2C1 [THPP-1-NC]
- residual activity [1]: 99%
- residual activity [2]: 100%
- residual activity [3]: 100%
- residual activity [4]: 100%
- residual activity [5]: 91%
- residual activity [6]: 100%
- residual activity [7]: 61%
- residual activity [8]: 100%
- residual activity [9]: 100%
- residual activity [10]: 100%
- residual activity [11]: 100%
- residual activity [12]: 100%
- residual activity [13]: 100%
- residual activity [14]: 100%
- residual activity [15]: 100%
- residual activity [16]: 99%
- residual activity [17]: 94%
- residual activity [18]: 94%
- residual activity [19]: 100%
- residual activity [20]: 100%
- residual activity [21]: 100%
- residual activity [22]: 77%
- residual activity [23]: 100%
- residual activity [24]: 100%
- residual activity [25]: 97%
- residual activity [26]: 100%
- residual activity [27]: 100%
- residual activity [28]: 100%
- residual activity [29]: 65%
- residual activity [30]: 100%
- residual activity [31]: 78%
- residual activity [32]: 100%
- residual activity [33]: 100%
- residual activity [34]: 100%
- residual activity [35]: 100%
- residual activity [36]: 53%
- residual activity [37]: 100%
- residual activity [38]: 95%
- residual activity [39]: 100%
- inhibition [40]: 5.63%
- residual activity [41]: 91%
- residual activity [42]: 83%
- inhibition [43]: 78.8%
- residual activity [44]: 100%
- residual activity [45]: 100%
